The nature of data set [1]: Fluorescent response to XO-HPX system, 96-well microplate (Table 1). Type of data set: biochemical. The following applies: relative fluorescence intensity, blank = 10, probe 21.3 μM, 10 minutes; for fluorescent response, XO—HPX: XO 13.1 mU/mL, HPX 50 μM, HEPES pH 7.4, 37° C.; for fluorescent response, XO—HPX—SOD: XO-HPX with SOD, 37° C. The method, then:
(§1) Moreover, in other conditions than those of the above-described tests, reactivity of all of the compounds 1a to 1d with H2O2, other various kinds of nucleophilic agents, reducing agents and the like also was tested, respectively. More specifically, fluorescent responses of 1a to 1d with respect to a XO-HPX system, a XO-HPX-SOD system, H2O2, ascorbic acid, 1,4-hydroquinone, propylamine, diethylamine, glucose, esterase, a cytochrome P450 reductase+NADPH system, and a diaphorase+NADH system were measured, respectively. Operational processes thereof will be described below. Firstly, 1a to 1d and the above-described reagents were dissolved in HEPES of 10 mM having a pH of 7.4 so as to prepare solutions, respectively. Next, a 96 wellmicroplate was provided, where any of the solutions of 1a to 1d (25 μM, 170 μL) was poured into each of the wells, and furthermore, 30 μL of a blank solution or 30 μL of the solution of the reagent to be reacted therewith was added thereto. Final concentrations of the solutions in the wells were adjusted so that concentrations of the solutions of 1a to 1d respectively could be 21.3 μM, that of XO could be 13.1 mU/mL, those of HPX, H2O2, ascorbic acid, 1,4-hydroquinone, propylamine, diethylamine, glucose, NADPH and NADH respectively could be 50 μM, that of cytochrome P450 reductase could be 68 mU/mL, that of diaphorase could be 65 mU/mL, and that of esterase could be 0.5 U/mL, respectively. Then, after they reacted in the wells at 37° C. for 10 minutes, fluorescent responses were measured respectively. Fluorescence intensity measurement was conducted by using an ETC-272 Peltier thermostatted single cell holder (trade name) manufactured by JASCO Corporation or a SpectraMax GeminiEM fluorescence plate reader (trade name) manufactured by Molecular Devices Corporation provided with a FP-750 spectrofluorometer (trade name) manufactured by JASCO Corporation, and by setting excitation wavelengths and emission wavelengths so that those of 1a, 1b and 1c respectively could be 485 nm and 515 nm, and those of 1d respectively could be 511 nm and 540 nm.

Data set [2] is described as follows: Fluorescent response to H2O2 (Table 1). The settings on record: relative fluorescence intensity, blank = 10; probe 21.3 μM, H2O2 50 μM, 37° C., 10 minutes. It is filed as biochemical. The method, then:
as §1

The nature of data set [3]: Fluorescent response to ascorbic acid (Table 1). Type of data set: biochemical. The settings on record: relative fluorescence intensity, blank = 10; probe 21.3 μM, ascorbic acid 50 μM, 37° C., 10 minutes. As for the experimental part:
as §1

Data set [4] can be described thus: Fluorescent response to 1,4-hydroquinone (Table 1). Type of data set: biochemical. The following applies: relative fluorescence intensity, blank = 10; probe 21.3 μM, 1,4-hydroquinone 50 μM, 37° C., 10 minutes. As for the experimental part: as §1
A short description of data set [5]: Fluorescent response to propylamine (Table 1). It is filed as biochemical. The settings on record: relative fluorescence intensity, blank = 10; probe 21.3 μM, propylamine 50 μM, 37° C., 10 minutes. As for the experimental part: as §1
Data set [6] can be described thus: Fluorescent response to diethylamine (Table 1). Type of data set: biochemical. The following applies: relative fluorescence intensity, blank = 10; probe 21.3 μM, diethylamine 50 μM, 37° C., 10 minutes. The method, then: as §1
Data set [7] is described as follows: Fluorescent response to glucose (Table 1). Type of data set: biochemical. The following applies: relative fluorescence intensity, blank = 10; probe 21.3 μM, glucose 50 μM, 37° C., 10 minutes. The method, then:
as §1

Data set [8] deals with esterase. As to the kind of experiment: Fluorescent response to esterase (Table 1). Type of data set: biochemical. The settings on record: relative fluorescence intensity, blank = 10; probe 21.3 μM, esterase 0.5 U/mL, 37° C., 10 minutes. As for the experimental part:
as §1

A short description of data set [9]: Voltammetry measurement. Type of data set: physicochemical. The settings on record: CH3CN—H2O (3:1) containing Et4NClO4.
A short description of data set [10]: Capability as superoxide-detecting fluorescent probe (reactivity with superoxide). It is filed as biochemical. The following applies: tested similarly to the compound 1d. As for the experimental part: Then, by mainly using the compound 1d as a testing compound, the capability thereof as a superoxide-selective fluorescent probe was evaluated, and moreover, a test in a cell system also was conducted. These tests will be described below.
Thus, it is thought that each compound synthesized from a combination of: a phenolic colorant; and a 2,4-dinitrobenzenesulfonyl group, a 4-trifluoromethyl-2-nitrobenzenesulfonyl group or a 4-nitrobenzenesulfonyl group can be used as a superoxide-detecting fluorescent probe similarly. An example of the usage thereof will be shown in Scheme 8 below. Furthermore, it can be expected that a compound for a fluorescent probe having characteristics that are suitable for its application purpose can be designed and developed freely, by designing the compound of the present invention freely within the limitation defined by the general formula (I) and using the fluorescence mechanism developed by the inventors of the present invention, without being limited to the above-described combinations. Examples of the application purpose of the compound of the present invention are varied, including an application to a faintly coloring technique using superoxide.

Data set [11] is described as follows: Reactivity with superoxide and glutathione (FIG. 4). It is filed as biochemical. The settings on record: for selectivity (specificity), superoxide versus glutathione, FIG. 4: same conditions as 1-3 Superoxide-selectivity (2). As for the experimental part:
as §1
(§2) The reactivity of each of the compounds 1d, 5a, 6a, 7 and 8a with respect to superoxide and glutathione (GSH) that is a kind of thiol was tested under the same conditions as those of [1-3. Superoxide-selectivity (2)] in Example 1. […] A vertical axis thereof denotes a fluorescence intensity, which is represented in % of control.

Data set [12] is described as follows: Responses to the compounds listed in Table 1. It is filed as biochemical. The following applies: same conditions as Example 1. The method, then: as §1, §2
Data set [13] can be described thus: Fluorescence response to thiophosphonate group (FIG. 8). It is filed as biochemical. The following applies: for response to thiol group in thiophosphonate group: γ-S-ATP and adenosine monothiophosphate (S-AMP); for sensitivity of γ-S-ATP detection relative to 8a: similar tests. From the text: Moreover, a capability of the sulfonate compound of the present invention as a fluorescent probe for mercapto compounds other than thiol (a compound in which a —SH group is bonded to a carbon atom) was examined. […]

Data set [14] deals with neutrophils. As for the experimental part: Moreover, a toxicity of the compound 1d with respect to the neutrophils was evaluated by estimating cell viability by a trypan blue dyeing method. More specifically, the neutrophils (1.0×10^5 cells) were incubated at 37° C. for 120 minutes in a glass test tube coated with human serum albumin, in the presence of both of the compound 1d (6.25 μM) and PMA (0.16 μM), in the presence of either of them, and in the absence of them, respectively. Then, cell viability after the incubation with respect to cell viability before the incubation was measured.

Take `O=C1OC2(c3ccc(OS(=O)(=O)c4ccc([N+](=O)[O-])cc4[N+](=O)[O-])cc3Oc3cc(OS(=O)(=O)c4ccc([N+](=O)[O-])cc4[N+](=O)[O-])ccc32)c2ccccc21` [Compound 1a]: in [1], the “fluorescent response, XO—HPX” value is reported as 70 and the “fluorescent response, XO—HPX—SOD” value came out at 12. Besides, in data set [2], the “fluorescent response, H2O2” value was 10. The “fluorescent response, ascorbic acid” value in [3] turned out to be 10. In [4], the “fluorescent response, 1,4-hydroquinone” value was 10. Besides, the “fluorescent response, propylamine” value in data set [5] stood at 10. Further, the “fluorescent response, diethylamine” value in data set [6] is listed as 11. Moreover, the “fluorescent response, glucose” value in [7] is given as 10. Also, the “fluorescent response, esterase” value in data set [8] is on record as 17. The cathode response result in data set [9] was “about −0.5 V vs SCE”.

As to `O=C1OC2(c3cc(Cl)c(OS(=O)(=O)c4ccc([N+](=O)[O-])cc4[N+](=O)[O-])cc3Oc3cc(OS(=O)(=O)c4ccc([N+](=O)[O-])cc4[N+](=O)[O-])c(Cl)cc32)c2ccccc21` [Compound 1b], in data set [1], the “fluorescent response, XO—HPX” value came out at 288 and the “fluorescent response, XO—HPX—SOD” value was determined as 22. Also, in data set [2], the “fluorescent response, H2O2” value came out at 11. The “fluorescent response, ascorbic acid” value in data set [3] came out at 11. In addition, the “fluorescent response, 1,4-hydroquinone” value in [4] turned out to be 11. For the same compound, the “fluorescent response, propylamine” value in data set [5] is given as 10. Besides, the “fluorescent response, diethylamine” value in data set [6] is reported as 10. Moreover, in [7], the “fluorescent response, glucose” value came out at 10. The “fluorescent response, esterase” value in data set [8] is given as 20. In [9], the cathode response result is on record as “about −0.5 V vs SCE”.

On to `O=C1OC2(c3cc(F)c(OS(=O)(=O)c4ccc([N+](=O)[O-])cc4[N+](=O)[O-])cc3Oc3cc(OS(=O)(=O)c4ccc([N+](=O)[O-])cc4[N+](=O)[O-])c(F)cc32)c2ccccc21` [Compound 1c], for which, in data set [1], the “fluorescent response, XO—HPX” value was determined as 797 and the “fluorescent response, XO—HPX—SOD” value was 48. Also, the “fluorescent response, H2O2” value in data set [2] is 11. Moreover, the “fluorescent response, ascorbic acid” value in [3] turned out to be 11. The “fluorescent response, 1,4-hydroquinone” value in [4] is given as 10. The “fluorescent response, propylamine” value in [5] was determined as 10. In addition, in [6], the “fluorescent response, diethylamine” value is 10. The “fluorescent response, glucose” value in [7] was 10. In addition, the “fluorescent response, esterase” value in data set [8] came out at 23. Further, the cathode response entry in [9] is “about −0.5 V vs SCE”.

Turning to `O=C1OC2(c3ccccc31)c1cc(F)c(OS(=O)(=O)c3ccc(C(F)(F)F)cc3[N+](=O)[O-])c(F)c1Oc1c2cc(F)c(OS(=O)(=O)c2ccc(C(F)(F)F)cc2[N+](=O)[O-])c1F` [Compound 3], the “deprotection by superoxide into the corresponding fluorochrome” value (from here on “deprotection”) in data set [10] is listed as “deprotected by superoxide”.

As to `O=C(O)c1ccccc1-c1c2cc(F)c(=O)c(F)c-2oc2c(F)c(OS(=O)(=O)c3ccc(C(F)(F)F)cc3[N+](=O)[O-])c(F)cc12` [Compound 4a], in data set [10], the “deprotection” value is listed as “deprotected by superoxide”.

Regarding `O=C(O)c1ccccc1-c1c2cc(F)c(=O)c(F)c-2oc2c(F)c(OS(=O)(=O)c3ccc([N+](=O)[O-])cc3)c(F)cc12` [Compound 4b], the “deprotection” value in data set [10] is “deprotected by superoxide”.

For the compound `O=c1ccc2nc3ccc(OS(=O)(=O)c4ccc([N+](=O)[O-])cc4[N+](=O)[O-])cc3oc-2c1` [Compound 5a], the “deprotection” value in data set [10] was “deprotected by superoxide”. In [11], the “selectivity (specificity), superoxide versus glutathione, FIG. 4” value is “excellent mercapto compound-selectivity”. Also, the “response with respect to each of the compounds listed in Table 1” value (“response with respect to each” below) in data set [12] is “almost no response”. Further, the “response to thiol group in thiophosphonate group” value in data set [13] is reported as “responded to a thiol group in a so-called thiophosphonate group”.

For `O=c1ccc2nc3ccc(OS(=O)(=O)c4ccc(C(F)(F)F)cc4[N+](=O)[O-])cc3oc-2c1` [Compound 5b], the “deprotection” value in data set [10] is reported as “deprotected by superoxide”.

Regarding `O=c1cc(C(F)(F)F)c2ccc(OS(=O)(=O)c3ccc(C(F)(F)F)cc3[N+](=O)[O-])cc2o1` [Compound 6b], the “deprotection” value in data set [10] is listed as “deprotected by superoxide”.

With `Cc1cc(=O)oc2cc(OS(=O)(=O)c3ccc([N+](=O)[O-])cc3[N+](=O)[O-])ccc12` [Compound 7], the “selectivity (specificity), superoxide versus glutathione, FIG. 4” value in [11] is given as “excellent mercapto compound-selectivity”. The “response with respect to each” value in data set [12] was “almost no response”. In addition, in [13], the “response to thiol group in thiophosphonate group” value was “responded to a thiol group in a so-called thiophosphonate group”.

Turning to `Cc1cc2c(-c3ccccc3C(=O)O)c3cc(C)c(=O)cc-3oc2cc1OS(=O)(=O)c1ccc([N+](=O)[O-])cc1[N+](=O)[O-]` [Compound 8b], the response to glutathione entry in data set [11] is reported as “responded to glutathione with high sensitivity”. For the same compound, the “response with respect to each” value in [12] is “almost no response”. In [13], the “sensitivity of γ-S-ATP detection relative to 8a” value is “sensitivity still higher than that of 8a”.

`Cc1c2oc3c(C)c(OS(=O)(=O)c4ccc([N+](=O)[O-])cc4[N+](=O)[O-])ccc3c(-c3ccccc3C(=O)O)c-2ccc1=O` [Compound 8c]: the response to glutathione result in data set [11] is recorded as “responded to glutathione with high sensitivity”. In addition, in [12], the “response with respect to each” value is “almost no response”. Further, the “sensitivity of γ-S-ATP detection relative to 8a” value in data set [13] is recorded as “sensitivity still higher than that of 8a”.

Turning to `CCCCCCCCCCCCCC(=O)O[C@@H]1[C@@H](C)[C@@]2(O)[C@@H](C=C(CO)C[C@]3(O)C(=O)C(C)=C[C@@H]23)[C@@H]2C(C)(C)[C@]12OC(C)=O` [PMA, phorbol myristate acetate, reference compound], the “toxicity with respect to the neutrophils” value in [14] (incubation of 120 minutes) is “did not show any significant toxicity”. Also, the “cell viability after the incubation with respect to before the incubation” value in data set [14] (substance only (1d 6.25 μM or PMA 0.16 μM), 1.0×10^5 neutrophils, 37° C., 120 minutes) amounted to 93%.

For the origin of these results see patent US7465814B2, “Sulfonate compound and fluorescent probe using the same” (priority 2003, dated 2008).
